Data: PMC9097188, “Design, Synthesis, and Molecular Modeling Studies of a Novel Benzimidazole as an Aromatase Inhibitor” (ACS Omega, 2022)
Where two headings read alike, the source gives them in different places.

Experiments:
[1] = test system: A549 (lung carcinoma cell line); assay: MTT cytotoxicity assay, A549; format: cell-based; details: Homo sapiens, mean of four independent studies, read-out: IC50 against A549
Method: (§1) In this study, all compounds were tested for antiproliferative activity using an MTT assay with doxorubicin as a control against MCF-7 (human breast adenocarcinoma cell line), A549 (lung carcinoma cell line), HepG2 (human liver carcinoma cell line), HeLa (cervical cell line), and C6 (rat glioma cell line) cell lines. Table 1 summarizes the results of four independent studies as the mean IC50 value (half-maximum inhibitory concentration).
(§2) MTT tests were used to screen the anticancer activities of compounds 5a–i. The MTT assays were carried out as stated previously.[16],[17] The anticancer activity of the final compounds was tested on […]: A549 (lung carcinoma cell line), HeLa (cervical cell line), MCF-7 (human breast adenocarcinoma cell line), HepG2 (human liver carcinoma cell line), C6 (rat glioma cell line), and NIH3T3 […] (mouse embryo fibroblast cell line). In the MTT experiments, doxorubicin and Hoechst 33342 were employed as reference drugs.

[2] = test system: MCF-7 (human breast adenocarcinoma cell line); assay: MTT cytotoxicity assay, MCF-7; format: cell-based; details: mean of four independent studies, read-out: IC50 against MCF-7
Method: as §1, §2

[3] = test system: C6 (rat glioma cell line); assay: MTT cytotoxicity assay, C6; format: cell-based; details: mean of four independent studies, read-out: IC50 against C6
Method: as §1, §2

[4] = test system: HepG2 (human liver carcinoma cell line); assay: MTT cytotoxicity assay, HepG2; format: cell-based; details: mean of four independent studies, read-out: IC50 against HepG2
Method: as §1, §2

[5] = test system: HeLa (cervical cell line); assay: MTT cytotoxicity assay, HeLa; format: cell-based; details: Homo sapiens, mean of four independent studies, read-out: IC50 against HeLa
Method: as §1, §2

[6] = biological target: T1, human aromatase (Homo sapiens, UniProt P11511); assay: Aromatase (CYP19A) Inhibitor Screening Kit (Fluorimetric), BioVision; format: biochemical
T1 construct: purchased BioVision
T1 sequence (P11511 1-503): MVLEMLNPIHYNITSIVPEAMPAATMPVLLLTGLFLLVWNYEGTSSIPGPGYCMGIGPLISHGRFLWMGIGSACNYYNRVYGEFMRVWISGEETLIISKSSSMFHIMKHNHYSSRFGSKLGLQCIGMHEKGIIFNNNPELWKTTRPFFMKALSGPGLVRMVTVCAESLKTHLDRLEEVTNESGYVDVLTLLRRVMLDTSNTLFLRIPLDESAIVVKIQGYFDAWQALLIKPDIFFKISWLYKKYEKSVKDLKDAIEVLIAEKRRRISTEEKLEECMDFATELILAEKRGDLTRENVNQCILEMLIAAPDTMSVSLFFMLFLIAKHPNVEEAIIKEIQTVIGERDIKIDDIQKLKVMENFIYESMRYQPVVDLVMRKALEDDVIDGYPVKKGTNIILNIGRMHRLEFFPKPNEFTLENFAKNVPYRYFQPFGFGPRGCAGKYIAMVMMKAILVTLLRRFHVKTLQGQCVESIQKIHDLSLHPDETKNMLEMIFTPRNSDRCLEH
Description: An in vitro fluorescence-based test (Aromatase (CYP19A) Inhibitor Screening Kit (Fluorimetric), BioVision) was used to determine the inhibitory activity of the produced compounds against human aromatase.
The BioVision Aromatase (CYP19A) Inhibitor Screening Kit (Fluorometric) was used to carry out this experiment.

[7] = experimental validation of 3D-QSAR model, read-out: IC50 (aromatase, Table 5)
[8] = fluorimetric kit, compound dissolved in acetonitrile, read-out: IC50 aromatase inhibition

IC50 [6, 7] [µM]	IC50 [6, 8] [µM]	melting point [°C]	SMILES	IC50 [1] [µM]	IC50 ([2]; Homo sapiens, MCF7, MTT assay) [µM]	IC50 ([2]; MTT assay) [µM]	IC50 [3] [µM]	IC50 [4] [µM]	IC50 [5] [µM]
1.48	1.47 ± 0.062	155.5 to 157.4	O=C(CSc1nnc(-c2ccc3nc(-c4ccc(O)cc4)[nH]c3c2)o1)N1CCN(Cc2ccc(Cl)cc2)CC1 [5b, 2-((5-(2-(4-Hydroxyphenyl)-1H-benzo[d]imidazol-6-yl)-1,3,4-oxadiazol-2-yl)thio)-1-(4-(4-chlorobenzyl)piperazin-1-yl)ethan-1-one]	≥ 100	5.13 ± 0.211	6.55 ± 0.287	24.7 ± 1.21	55.2 ± 1.46	≥ 100
2.51	2.51 ± 0.124	> 400	O=C(CSc1nnc(-c2ccc3nc(-c4ccc(O)cc4)[nH]c3c2)o1)N1CCN(Cc2ccc(F)cc2)CC1 [5c, 2-((5-(2-(4-Hydroxyphenyl)-1H-benzo[d]imidazol-6-yl)-1,3,4-oxadiazol-2-yl)thio)-1-(4-(4-fluorobenzyl)piperazin-1-yl)ethan-1-one]	≥ 100	6.55 ± 0.287	5.13 ± 0.211	18.2 ± 1.46	17.3 ± 1.1	–
–	38.6 ± 1.13	266.5 to 267.9	O=C(CSc1nnc(-c2ccc3nc(-c4ccc(O)cc4)[nH]c3c2)o1)N1CCN(Cc2ccccc2)CC1 [5a, 2-((5-(2-(4-Hydroxyphenyl)-1H-benzo[d]imidazol-6-yl)-1,3,4-oxadiazol-2-yl)thio)-1-(4-benzylpiperazin-1-yl)ethan-1-one]	≥ 100	9.96 ± 0.312	9.06 ± 0.311	≥ 100	38.8 ± 0.887	≥ 100
–	80.4 ± 3.12	189.9 to 191.4	CCOc1ccc(-c2nc3ccc(-c4nnc(SCC(=O)N5CCN(Cc6ccc(F)cc6)CC5)o4)cc3[nH]2)cc1 [5i, 2-((5-(2-(4-Ethoxyphenyl)-1H-benzo[d]imidazol-6-yl)-1,3,4-oxadiazol-2-yl)thio)-1-(4-(4-fluorobenzyl)piperazin-1-yl)ethan-1-one]	4.52 ± 0.21	9.06 ± 0.311	9.96 ± 0.312	6 ± 0.227	28.7 ± 1.22	42 ± 1.32
